Results taken from US11891386B2, “Indole compounds and their use” (ARIAGEN, INC., priority 2017, dated 2024).

System: EMT-6 syngeneic mouse tumor model (breast cancer)
Test: Anti-tumor activity, EMT-6 syngeneic mouse tumor model
Type: in vivo
Conditions: EMT6, 648 h, Study 2, EMT-6, 160 mpk, D27, read-out: TGI (tumor growth inhibition)

Q: How did the inhibition in vivo at 160 mg/kg turn out when COC(=O)c1csc(C(=O)c2c[nH]c3ccccc23)n1 [ARI-001, ITE] was run?
A: 75.1%
